Results published in ChEMBL document CHEMBL5143732 (J Med Chem, 2022).

What was measured:
Cytochrome P450 1A2 = molecular target: T1, Cytochrome P450 1A2 (Homo sapiens, UniProt P05177); experiment: Inhibition of CYP1A2 in human liver microsome using Phenacetin as substrate preincubated for 10 mins followed by NADPH addition and measured after 15 mins by LC-MS/MS analysis; type: ADME, microsomes
T1 sequence (P05177 whole entry): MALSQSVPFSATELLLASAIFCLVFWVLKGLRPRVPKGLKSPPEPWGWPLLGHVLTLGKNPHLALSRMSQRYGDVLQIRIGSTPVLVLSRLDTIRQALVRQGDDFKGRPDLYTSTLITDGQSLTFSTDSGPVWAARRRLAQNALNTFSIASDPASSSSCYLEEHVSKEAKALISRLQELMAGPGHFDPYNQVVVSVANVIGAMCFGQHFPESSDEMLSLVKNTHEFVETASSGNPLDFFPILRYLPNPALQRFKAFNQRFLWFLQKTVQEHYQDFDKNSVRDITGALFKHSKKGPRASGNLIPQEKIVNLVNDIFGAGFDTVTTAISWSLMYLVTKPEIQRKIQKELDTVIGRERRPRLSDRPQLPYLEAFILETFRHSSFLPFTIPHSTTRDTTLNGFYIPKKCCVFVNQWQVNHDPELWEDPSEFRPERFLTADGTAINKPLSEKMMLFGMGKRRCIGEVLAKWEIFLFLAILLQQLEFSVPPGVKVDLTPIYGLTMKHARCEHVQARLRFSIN

Cytochrome P450 2C19 = Cytochrome P450 2C19 (Homo sapiens, UniProt P33261); experiment: Inhibition of CYP2C19 in human liver microsome using mephenytoin as substrate preincubated for 10 mins followed by NADPH addition and measured after 15 mins by LC-MS/MS analysis; type: ADME, microsomes
[1] = Aqueous solubility of compound at pH 6.8; type: physicochemical; settings: buffer
Cytochrome P450 3A4 = Cytochrome P450 3A4 (Homo sapiens, UniProt P08684); experiment: Inhibition of CYP3A4 in human liver microsome using midazolam and testostrone as substrate preincubated for 10 mins followed by NADPH addition and measured after 15 mins by LC-MS/MS analysis; type: ADME, microsomes
[2] = molecular target: Voltage-gated inwardly rectifying potassium channel KCNH2 (Homo sapiens, UniProt Q12809); experiment: Inhibition of hERG expressed in CHO cells at -80 mV holding potential by automated patch clamp method; type: toxicity, cell-based
Cytochrome P450 2C9 = Cytochrome P450 2C9 (Homo sapiens, UniProt P11712); experiment: Inhibition of CYP2C9 in human liver microsome using tolbutamide as substrate preincubated for 10 mins followed by NADPH addition and measured after 15 mins by LC-MS/MS analysis; type: ADME, microsomes
[3] = Aggregation property of the compound in PBS at 7.4 pH assessed as dimerization at 5.4 uM by UV/vis double-beam spectrometer analysis; type: physicochemical; settings: buffer, pH 7.4, 5.4 µM
Cytochrome P450 2D6 = Cytochrome P450 2D6 (Homo sapiens, UniProt P10635); experiment: Inhibition of CYP2D6 in human liver microsome using dextromethorphan as substrate preincubated for 10 mins followed by NADPH addition and measured after 15 mins by LC-MS/MS analysis; type: ADME, microsomes
Sequence of Cytochrome P450 2D6 (P10635 whole entry): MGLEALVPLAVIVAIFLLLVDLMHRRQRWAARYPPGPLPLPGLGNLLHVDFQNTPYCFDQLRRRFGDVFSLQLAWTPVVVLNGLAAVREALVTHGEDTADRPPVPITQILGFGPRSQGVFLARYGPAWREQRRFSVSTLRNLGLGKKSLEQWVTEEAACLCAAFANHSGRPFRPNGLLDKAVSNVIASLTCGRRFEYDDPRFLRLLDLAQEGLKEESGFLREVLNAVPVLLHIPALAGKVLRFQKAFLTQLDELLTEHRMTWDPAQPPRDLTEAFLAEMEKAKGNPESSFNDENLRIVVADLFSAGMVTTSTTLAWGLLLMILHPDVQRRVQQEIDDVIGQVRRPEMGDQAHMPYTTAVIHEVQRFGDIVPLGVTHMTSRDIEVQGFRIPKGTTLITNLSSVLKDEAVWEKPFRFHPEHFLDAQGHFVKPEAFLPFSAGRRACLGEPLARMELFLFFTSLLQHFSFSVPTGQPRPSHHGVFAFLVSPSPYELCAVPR

Sequence of Cytochrome P450 3A4 (P08684 whole entry): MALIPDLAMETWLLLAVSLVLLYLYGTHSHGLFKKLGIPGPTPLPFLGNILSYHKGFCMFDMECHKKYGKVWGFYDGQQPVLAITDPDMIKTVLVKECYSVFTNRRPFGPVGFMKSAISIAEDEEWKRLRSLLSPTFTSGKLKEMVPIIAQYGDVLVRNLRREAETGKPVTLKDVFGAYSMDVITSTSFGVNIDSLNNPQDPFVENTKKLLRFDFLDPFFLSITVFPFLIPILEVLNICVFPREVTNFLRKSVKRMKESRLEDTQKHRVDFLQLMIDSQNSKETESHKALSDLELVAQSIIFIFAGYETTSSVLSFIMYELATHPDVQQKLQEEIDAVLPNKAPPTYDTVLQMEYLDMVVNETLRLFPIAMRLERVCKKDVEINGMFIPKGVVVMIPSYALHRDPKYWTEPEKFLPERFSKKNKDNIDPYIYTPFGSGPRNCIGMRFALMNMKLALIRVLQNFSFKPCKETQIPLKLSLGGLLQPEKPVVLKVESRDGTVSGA
Sequence of Voltage-gated inwardly rectifying potassium channel KCNH2 (Q12809 whole entry): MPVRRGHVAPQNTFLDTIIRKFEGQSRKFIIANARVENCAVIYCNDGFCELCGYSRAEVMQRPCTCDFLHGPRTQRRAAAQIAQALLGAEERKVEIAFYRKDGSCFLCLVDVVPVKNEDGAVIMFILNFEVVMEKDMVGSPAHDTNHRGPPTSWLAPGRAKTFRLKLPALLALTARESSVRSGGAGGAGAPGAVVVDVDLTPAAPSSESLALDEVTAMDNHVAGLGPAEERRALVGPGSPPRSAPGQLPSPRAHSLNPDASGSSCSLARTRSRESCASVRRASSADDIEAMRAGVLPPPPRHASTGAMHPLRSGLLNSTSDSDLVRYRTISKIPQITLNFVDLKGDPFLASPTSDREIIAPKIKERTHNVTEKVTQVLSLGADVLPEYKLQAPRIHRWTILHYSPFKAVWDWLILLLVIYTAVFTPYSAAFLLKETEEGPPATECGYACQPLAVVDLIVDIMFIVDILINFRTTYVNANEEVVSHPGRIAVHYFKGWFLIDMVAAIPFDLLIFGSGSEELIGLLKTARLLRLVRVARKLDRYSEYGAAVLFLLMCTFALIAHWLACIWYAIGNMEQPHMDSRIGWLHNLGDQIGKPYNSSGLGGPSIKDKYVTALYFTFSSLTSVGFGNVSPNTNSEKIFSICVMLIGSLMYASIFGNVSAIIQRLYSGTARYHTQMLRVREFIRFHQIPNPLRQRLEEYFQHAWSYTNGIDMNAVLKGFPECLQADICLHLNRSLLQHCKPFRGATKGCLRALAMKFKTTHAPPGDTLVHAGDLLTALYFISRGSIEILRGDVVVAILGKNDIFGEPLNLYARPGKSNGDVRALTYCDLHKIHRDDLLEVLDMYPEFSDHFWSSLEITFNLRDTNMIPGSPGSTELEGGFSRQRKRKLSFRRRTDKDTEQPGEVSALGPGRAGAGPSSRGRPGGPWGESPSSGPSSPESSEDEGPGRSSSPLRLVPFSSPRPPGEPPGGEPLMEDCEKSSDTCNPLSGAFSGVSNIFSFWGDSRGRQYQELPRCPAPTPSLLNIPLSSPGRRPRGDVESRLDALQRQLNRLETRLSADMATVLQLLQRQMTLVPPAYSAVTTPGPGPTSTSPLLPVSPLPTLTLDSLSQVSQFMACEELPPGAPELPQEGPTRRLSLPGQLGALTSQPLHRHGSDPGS
Sequence of Cytochrome P450 2C19 (P33261 whole entry): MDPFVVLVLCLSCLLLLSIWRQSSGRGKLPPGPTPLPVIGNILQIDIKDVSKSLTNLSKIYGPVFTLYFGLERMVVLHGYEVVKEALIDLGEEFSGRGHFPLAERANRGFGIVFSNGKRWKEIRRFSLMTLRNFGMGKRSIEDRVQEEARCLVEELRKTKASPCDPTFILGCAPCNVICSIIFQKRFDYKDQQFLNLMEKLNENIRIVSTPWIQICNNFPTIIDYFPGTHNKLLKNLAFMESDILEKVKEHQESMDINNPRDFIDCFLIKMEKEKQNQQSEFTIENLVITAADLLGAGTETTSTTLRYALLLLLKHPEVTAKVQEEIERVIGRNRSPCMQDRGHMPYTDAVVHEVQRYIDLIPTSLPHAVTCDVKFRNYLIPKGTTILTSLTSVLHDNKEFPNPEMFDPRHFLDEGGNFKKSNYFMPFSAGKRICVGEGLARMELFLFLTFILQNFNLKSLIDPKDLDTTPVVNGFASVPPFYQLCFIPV
Sequence of Cytochrome P450 2C9 (P11712 whole entry): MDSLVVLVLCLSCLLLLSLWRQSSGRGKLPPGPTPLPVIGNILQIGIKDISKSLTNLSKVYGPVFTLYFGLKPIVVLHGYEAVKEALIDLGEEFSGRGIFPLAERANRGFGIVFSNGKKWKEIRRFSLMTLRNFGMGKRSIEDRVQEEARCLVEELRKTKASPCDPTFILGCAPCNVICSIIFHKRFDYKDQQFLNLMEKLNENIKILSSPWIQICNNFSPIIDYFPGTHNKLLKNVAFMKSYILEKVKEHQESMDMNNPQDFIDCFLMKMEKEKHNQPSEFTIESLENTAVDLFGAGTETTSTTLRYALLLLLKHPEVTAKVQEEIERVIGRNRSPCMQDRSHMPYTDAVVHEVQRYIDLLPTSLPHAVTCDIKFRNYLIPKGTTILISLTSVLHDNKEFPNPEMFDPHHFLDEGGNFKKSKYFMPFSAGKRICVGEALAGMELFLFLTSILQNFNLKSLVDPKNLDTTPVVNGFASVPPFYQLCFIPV

With `CNCC(=O)N[C@@H]1[C@H](O)[C@H](O[C@H]2/C=C/C=C/C=C/C=C/C=C/C=C/C=C/[C@H](C)[C@@H](O)[C@@H](C)[C@H](C)OC(=O)C[C@H](O)C[C@H](O)CC[C@@H](O)[C@H](O)C[C@H](O)C[C@]3(O)C[C@H](O)[C@@H](C(=O)NCCN)[C@H](C2)O3)O[C@H](C)[C@H]1O.NC(CCC(=O)O)C(=O)O` the IC50 (Cytochrome P450 1A2) was > 25 µM, the IC50 (Cytochrome P450 2C19) was > 50 µM and the solubility [1] was 106 mg/mL. The IC50 (Cytochrome P450 3A4) was 36.9 µM, the IC50 [2] was > 13.3 µM and the IC50 (Cytochrome P450 2C9) was > 50 µM. The Activity [3] was “Active” and the IC50 (Cytochrome P450 2D6) was > 50 µM.
